Experiments:
[1] = target: SARS-CoV-2 3CLpro (Severe acute respiratory syndrome coronavirus 2, UniProt P0DTD1); test: biochemical
[2] = target: HCoV-229E 3CLpro (Human coronavirus 229E, UniProt P0C6X1); test: HCoV-229E 3CLpro inhibition assay (FRET); format: biochemical
[3] = target: MERS-CoV 3CLpro (Middle East respiratory syndrome-related coronavirus, UniProt K9N7C7); test: biochemical
[4] = target: SARS-CoV 3CLpro (Severe acute respiratory syndrome coronavirus, UniProt P0C6X7); test: biochemical

Chain of HCoV-229E 3CLpro (P0C6X1 2966-3267): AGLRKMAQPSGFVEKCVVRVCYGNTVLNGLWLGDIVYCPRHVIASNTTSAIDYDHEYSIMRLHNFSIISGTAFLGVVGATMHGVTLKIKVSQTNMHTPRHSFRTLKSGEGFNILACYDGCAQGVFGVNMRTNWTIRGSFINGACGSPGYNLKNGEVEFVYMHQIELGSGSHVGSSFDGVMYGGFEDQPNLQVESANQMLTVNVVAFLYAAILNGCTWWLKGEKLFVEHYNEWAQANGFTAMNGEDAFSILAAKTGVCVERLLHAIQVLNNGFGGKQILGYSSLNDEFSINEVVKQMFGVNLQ
Chain of MERS-CoV 3CLpro (K9N7C7 3248-3553): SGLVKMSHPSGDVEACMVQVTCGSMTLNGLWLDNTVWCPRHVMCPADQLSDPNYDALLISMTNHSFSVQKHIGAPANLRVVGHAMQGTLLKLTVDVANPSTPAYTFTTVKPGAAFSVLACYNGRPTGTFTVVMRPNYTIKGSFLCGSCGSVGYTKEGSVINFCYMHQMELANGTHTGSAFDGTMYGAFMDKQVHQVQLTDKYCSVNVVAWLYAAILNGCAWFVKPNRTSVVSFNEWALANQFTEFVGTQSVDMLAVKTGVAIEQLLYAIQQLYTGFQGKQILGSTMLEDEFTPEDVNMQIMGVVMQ

Compound `CC(C)(C)[C@H](NC(=O)C1CC1(F)F)C(=O)N1C[C@@H]2CCC[C@@H]2[C@H]1C(=O)NN(C[C@@H]1CCNC1=O)C(=O)[C@H](F)Cl` (mixture of isomers) [Example 34, Rac-2,2-difluoro-N-[(1S)-2,2-dimethyl-1-[(3S,3aS,6aR)-3-[[[(2R)-2-chloro-2-fluoro-acetyl]-[[(3S)-2-oxopyrrolidin-3-yl]methyl]amino]carbamoyl]-3,3a,4,5,6,6a-hexahydro-1H-cyclopenta[c]pyrrole-2-carbonyl]propyl]cyclopropanecarboxamide] has an IC50 [1] of 8 nM, an IC50 [2] of 23 nM and an IC50 [3] of 66 nM. For the same compound, the IC50 [4] was 12 nM.

`CC(F)C(=O)N[C@H](C(=O)N1C[C@@H]2CCC[C@@H]2[C@H]1C(=O)NN(C[C@@H]1CCNC1=O)C(=O)[C@H](F)Cl)C(C)(C)C` (mixture of isomers) [Example 36, Rac-2-fluoro-N-[(1S)-2,2-dimethyl-1-[(3S,3aS,6aR)-3-[[[(2R)-2-chloro-2-fluoro-acetyl]-[[(3S)-2-oxopyrrolidin-3-yl]methyl]amino]carbamoyl]-3,3a,4,5,6,6a-hexahydro-1H-cyclopenta[c]pyrrole-2-carbonyl]propyl]propanamide] was tested, and the IC50 [1] was 7 nM, the IC50 [2] was 34 nM and the IC50 [3] was 93 nM. For the same compound, the IC50 [4] was 12 nM.

`CC[C@H](C)[C@H](NC(=O)C1CC1(F)F)C(=O)N1C[C@@H]2CCC[C@@H]2[C@H]1C(=O)NN(C[C@@H]1CCNC1=O)C(=O)[C@H](F)Cl` (mixture of isomers) [Example 41, Rac-2,2-difluoro-N-[(1S,2S)-2-methyl-1-[(3S,3aS,6aR)-3-[[[(2R)-2-chloro-2-fluoro-acetyl]-[[(3S)-2-oxopyrrolidin-3-yl]methyl]amino]carbamoyl]-3,3a,4,5,6,6a-hexahydro-1H-cyclopenta[c]pyrrole-2-carbonyl]butyl]cyclopropanecarboxamide] was tested, and the IC50 [1] was 7 nM, the IC50 [2] was 68 nM and the IC50 [3] was 221 nM. For the same compound, the IC50 [4] was 33 nM.

With `CC[C@H](C)[C@H](NC(=O)C(C)F)C(=O)N1C[C@@H]2CCC[C@@H]2[C@H]1C(=O)NN(C[C@@H]1CCNC1=O)C(=O)[C@H](F)Cl` (mixture of isomers) [Example 43, Rac-2-fluoro-N-[(1S,2S)-2-methyl-1-[(3S,3aS,6aR)-3-[[[(2R)-2-chloro-2-fluoro-acetyl]-[[(3S)-2-oxopyrrolidin-3-yl]methyl]amino]carbamoyl]-3,3a,4,5,6,6a-hexahydro-1H-cyclopenta[c]pyrrole-2-carbonyl]butyl]propanamide] the IC50 [1] was 8 nM, the IC50 [2] was 22 nM and the IC50 [3] was 58 nM. For the same compound, the IC50 [4] was 11 nM.

`CC[C@H](C)[C@H](NC(=O)C1CC1(F)F)C(=O)N1C[C@H]2[C@@H]([C@H]1C(=O)NN(C[C@@H]1CCNC1=O)C(=O)[C@H](F)Cl)C2(C)C` (mixture of isomers) [Example 53, Rac-2,2-difluoro-N-[(1S,2S)-2-methyl-1-[(1R,2S,5S)-6,6-dimethyl-2-[[[(2R)-2-chloro-2-fluoro-acetyl]-[[(3S)-2-oxopyrrolidin-3-yl]methyl]amino]carbamoyl]-3-azabicyclo[3.1.0]hexane-3-carbonyl]butyl]cyclopropanecarboxamide] was tested, and the IC50 [1] was 8 nM, the IC50 [2] was 32 nM and the IC50 [3] was 87 nM. It also gave an IC50 [4] of 13 nM.

`CC[C@H](C)[C@H](NC(=O)C(C)F)C(=O)N1C[C@H]2[C@@H]([C@H]1C(=O)NN(C[C@@H]1CCNC1=O)C(=O)[C@H](F)Cl)C2(C)C` (mixture of isomers) [Example 56, Rac-2-fluoro-N-[(1S,2S)-2-methyl-1-[(1R,2S,5S)-6,6-dimethyl-2-[[[(2R)-2-chloro-2-fluoro-acetyl]-[[(3S)-2-oxopyrrolidin-3-yl]methyl]amino]carbamoyl]-3-azabicyclo[3.1.0]hexane-3-carbonyl]butyl]propanamide] gave an IC50 [1] of 8 nM, an IC50 [2] of 18 nM and an IC50 [3] of 52 nM. It also gave an IC50 [4] of 11 nM.

`CC[C@H](C)[C@H](NC(=O)C1CC1(F)F)C(=O)N1C[C@H]2[C@@H]([C@H]1C(=O)NN(C[C@@H]1CCNC1=O)C(=O)[C@@H](F)Cl)C2(C)C` (mixture of isomers) [Example 111, Rac-2,2-difluoro-N-[(1S,2S)-2-methyl-1-[(1R,2S,5S)-6,6-dimethyl-2-[[[(2S)-2-chloro-2-fluoro-acetyl]-[[(3S)-2-oxopyrrolidin-3-yl]methyl]amino]carbamoyl]-3-azabicyclo[3.1.0]hexane-3-carbonyl]butyl]cyclopropanecarboxamide] was tested, and the IC50 [1] was 16 nM, the IC50 [2] was 37 nM and the IC50 [3] was 96 nM. For the same compound, the IC50 [4] was 28 nM.

`CC(C)(C)[C@H](NC(=O)C(F)(F)F)C(=O)N1CC2(CC2)C[C@H]1C(=O)NN(C[C@@H]1CCNC1=O)C(=O)[C@H](F)Cl` [Example 6, N-[(1S)-1-[(6S)-6-[[[(2R)-2-chloro-2-fluoro-acetyl]-[[(3S)-2-oxopyrrolidin-3-yl]methyl]amino]carbamoyl]-5-azaspiro[2.4]heptane-5-carbonyl]-2,2-dimethyl-propyl]-2,2,2-trifluoro-acetamide] gave an IC50 [2] of 42 nM, an IC50 [3] of 109 nM and an IC50 [4] of 14 nM.

`CC1(C)[C@@H]2[C@@H](C(=O)NN(C[C@@H]3CCNC3=O)C(=O)[C@H](F)Cl)N(C(=O)COc3cc(F)cc(F)c3)C[C@@H]21` [Example 17, (1R,2S,5S)—N′-[(2R)-2-chloro-2-fluoro-acetyl]-3-[2-(3,5-difluorophenoxy)acetyl]-6,6-dimethyl-N′—[[(3S)-2-oxopyrrolidin-3-yl]methyl]-3-azabicyclo[3.1.0]hexane-2-carbohydrazide] gave an IC50 [1] of 121 nM, an IC50 [3] of 408 nM and an IC50 [4] of 429 nM.

Compound `CC(C)(C)[C@H](NC(=O)C(F)(F)F)C(=O)N1C[C@H]2[C@@H]([C@H]1C(=O)NN(C[C@@H]1CCNC1=O)C(=O)CCl)C2(C)C` [Example 18, N-[(1S)-1-[(1R,2S,5S)-2-[[(2-chloroacetyl)-[[(3S)-2-oxopyrrolidin-3-yl]methyl]amino]carbamoyl]-6,6-dimethyl-3-azabicyclo[3.1.0]hexane-3-carbonyl]-2,2-dimethyl-propyl]-2,2,2-trifluoro-acetamide] has an IC50 [3] of 408 nM and an IC50 [4] of 429 nM.

With `CC[C@H](C)[C@H](NC(=O)C(F)(F)C(F)(F)F)C(=O)N1C[C@@H]2CCC[C@@H]2[C@H]1C(=O)NN(C[C@@H]1CCNC1=O)C(=O)[C@H](F)Cl` [Example 50, N-[(1S,2S)-1-[(3S,3aS,6aR)-3-[[[(2R)-2-chloro-2-fluoro-acetyl]-[[(3S)-2-oxopyrrolidin-3-yl]methyl]amino]carbamoyl]-3,3a,4,5,6,6a-hexahydro-1H-cyclopenta[c]pyrrole-2-carbonyl]-2-methyl-butyl]-2,2,3,3,3-pentafluoro-propanamide] the IC50 [2] was 17 nM, the IC50 [3] was 42 nM and the IC50 [4] was 8 nM.

In the case of `CC1(C)[C@@H]2[C@@H](C(=O)NN(C[C@@H]3CCNC3=O)C(=O)[C@H](F)Cl)N(C(=O)[C@H](CC34CC(C3)C4)NC(=O)C(F)(F)F)C[C@@H]21` [Example 65, N-[(1S)-1-(1-bicyclo[1.1.1]pentanylmethyl)-2-[(1R,2S,5S)-2-[[[(2R)-2-chloro-2-fluoro-acetyl]-[[(3S)-2-oxopyrrolidin-3-yl]methyl]amino]carbamoyl]-6,6-dimethyl-3-azabicyclo[3.1.0]hexan-3-yl]-2-oxo-ethyl]-2,2,2-trifluoro-acetamide], the IC50 [2] is reported as 25 nM.

`CCC(CC)[C@H](NC(=O)C(F)(F)F)C(=O)N1C[C@H]2[C@@H]([C@H]1C(=O)NN(C[C@@H]1CCNC1=O)C(=O)[C@H](F)Cl)C2(C)C` [Example 84, N-[(1S)-1-[(1R,2S,5S)-2-[[[(2R)-2-chloro-2-fluoro-acetyl]-[[(3S)-2-oxopyrrolidin-3-yl]methyl]amino]carbamoyl]-6,6-dimethyl-3-azabicyclo[3.1.0]hexane-3-carbonyl]-2-ethyl-butyl]-2,2,2-trifluoro-acetamide] showed an IC50 [2] of 30 nM, an IC50 [3] of 87 nM and an IC50 [4] of 14 nM.

Work on `O=C1NCC[C@H]1CN(NC(=O)[C@@H]1[C@H]2CCC[C@H]2CN1C(=O)COc1cccc(F)c1)C(=O)[C@H](F)Cl` [Example 88a, (3S,3aS,6aR)—N′-[(2R)-2-chloro-2-fluoro-acetyl]-2-[2-(3-fluorophenoxy)acetyl]-N′—[[(3S)-2-oxopyrrolidin-3-yl]methyl]-3,3a,4,5,6,6a-hexahydro-1H-cyclopenta[c]pyrrole-3-carbohydrazide] yielded an IC50 [1] of 42 nM and an IC50 [3] of 249 nM.

With `O=C1NCC[C@H]1CN(NC(=O)[C@H]1[C@@H]2CCC[C@@H]2CN1C(=O)COc1cccc(F)c1)C(=O)[C@H](F)Cl` [Example 88b, (3R,3aR,6aS)—N′-[(2R)-2-chloro-2-fluoro-acetyl]-2-[2-(3-fluorophenoxy)acetyl]-N′—[[(3S)-2-oxopyrrolidin-3-yl]methyl]-3,3a,4,5,6,6a-hexahydro-1H-cyclopenta[c]pyrrole-3-carbohydrazide] the IC50 [1] was > 10000 nM and the IC50 [3] was 155 nM.

With `O=C1NCC[C@H]1CN(NC(=O)[C@@H]1[C@H]2CCC[C@H]2CN1C(=O)COc1cc(F)cc(F)c1)C(=O)[C@H](F)Cl` [Example 89a, (3S,3aS,6aR)—N′-[(2R)-2-chloro-2-fluoro-acetyl]-2-[2-(3,5-difluorophenoxy)acetyl]-N′—[[(3S)-2-oxopyrrolidin-3-yl]methyl]-3,3a,4,5,6,6a-hexahydro-1H-cyclopenta[c]pyrrole-3-carbohydrazide] the IC50 [1] was 51 nM and the IC50 [3] was > 10000 nM.

In the case of `O=C1NCC[C@H]1CN(NC(=O)[C@H]1[C@@H]2CCC[C@@H]2CN1C(=O)COc1cc(F)cc(F)c1)C(=O)[C@H](F)Cl` [Example 89b, (3R,3aR,6aS)—N′-[(2R)-2-chloro-2-fluoro-acetyl]-2-[2-(3,5-difluorophenoxy)acetyl]-N′—[[(3S)-2-oxopyrrolidin-3-yl]methyl]-3,3a,4,5,6,6a-hexahydro-1H-cyclopenta[c]pyrrole-3-carbohydrazide], the IC50 [1] is reported as > 10000 nM and the IC50 [3] is reported as 193 nM.

Source: patent US20250059171A1 (Hoffmann-La Roche Inc., priority 2021, published 2025)
